Experimental data published in patent US8680012B2, “4-phenyl-pyrane-3,5-diones,4-phenyl-thiopyrane-3,6-diones and cyclohexanetriones as novel herbicides” (Syngenta Crop Protection LLC, priority 2006, dated 2014).

Assays:
Type in all cases: in vivo
[1] = tested on: Echinochloa crus-galli (ECHCG); assay: Example A post-emergence herbicidal activity, glasshouse pot test; details: 360 h, rate 125 g/ha, evaluated 15 days after spraying, read-out: Post-emergence activity ECHCG (100=total damage to plant; 0=no damage to plant)
Description: (§1) Seeds of a variety of test species were sown in standard soil in pots. After cultivation for one day (pre-emergence) or after 10 days cultivation (post-emergence) under controlled conditions in a glasshouse, the plants were sprayed with an aqueous spray solution derived from the formulation of the technical active ingredient in 0.6 ml acetone and 45 ml formulation solution containing 10.6% Emulsogen EL (Registry number 61791-12-6), 42.2% N-methylpyrrolidone, 42.2% dipropylene glycol monomethyl ether (Registry number 34590-94-8) and 0.2% X-77 (Registry number 11097-66-8). The test plants were then grown in a greenhouse under optimum conditions until, 15 days later for post-emergence and 20 days for pre-emergence, the test was evaluated (100=total damage to plant; 0=no damage to plant).
(§2) Alopecurus myosuroides (ALOMY), Avena fatua (AVEFA), Lolium perenne (LOLPE), Setaria faberi (SETFA), Digitaria sanguinalis (DIGSA), Echinochloa crus-galli (ECHCG)

Lolium perenne (LOLPE) [2] = assay: as above; details: 360 h, rate 125 g/ha, evaluated 15 days after spraying, read-out: Post-emergence activity LOLPE (100=total damage to plant; 0=no damage to plant)
Description: as §1, §2

[3] = tested on: Digitaria sanguinalis (DIGSA); assay: as above; details: 360 h, rate 125 g/ha, evaluated 15 days after spraying, read-out: Post-emergence activity DIGSA (100=total damage to plant; 0=no damage to plant)
Description: as §1, §2

[4] = tested on: Alopecurus myosuroides (ALOMY); assay: as above; details: 360 h, rate 125 g/ha, evaluated 15 days after spraying, read-out: Post-emergence activity ALOMY (100=total damage to plant; 0=no damage to plant)
Description: as §1, §2

Setaria faberi (SETFA) [5] = assay: as above; details: 360 h, rate 125 g/ha, evaluated 15 days after spraying, read-out: Post-emergence activity SETFA (100=total damage to plant; 0=no damage to plant)
Description: as §1, §2

Avena fatua (AVEFA) [6] = assay: as above; details: 360 h, rate 125 g/ha, evaluated 15 days after spraying, read-out: Post-emergence activity AVEFA (100=total damage to plant; 0=no damage to plant)
Description: as §1, §2

[7] = tested on: Echinochloa crus-galli (ECHCG); assay: Example A pre-emergence herbicidal activity, glasshouse pot test; details: 480 h, evaluated 20 days after spraying, read-out: Pre-emergence activity ECHCG (100=total damage to plant; 0=no damage to plant); for pest or weed control at 500 g/ha: rate 500 g/ha; for pest or weed control at 250 g/ha: rate 250 g/ha
Description: as §1, §2

Lolium perenne (LOLPE) [8] = assay: as above; details: 480 h, evaluated 20 days after spraying, read-out: Pre-emergence activity LOLPE (100=total damage to plant; 0=no damage to plant); for pest or weed control at 500 g/ha: rate 500 g/ha; for pest or weed control at 250 g/ha: rate 250 g/ha
Description: as §1, §2

[9] = tested on: Digitaria sanguinalis (DIGSA); assay: as above; details: 480 h, evaluated 20 days after spraying, read-out: Pre-emergence activity DIGSA (100=total damage to plant; 0=no damage to plant); for pest or weed control at 500 g/ha: rate 500 g/ha; for pest or weed control at 250 g/ha: rate 250 g/ha
Description: as §1, §2

[10] = tested on: Alopecurus myosuroides (ALOMY); assay: as above; details: 480 h, evaluated 20 days after spraying, read-out: Pre-emergence activity ALOMY (100=total damage to plant; 0=no damage to plant); for pest or weed control at 500 g/ha: rate 500 g/ha; for pest or weed control at 250 g/ha: rate 250 g/ha
Description: as §1, §2

Setaria faberi (SETFA) [11] = assay: as above; details: 480 h, evaluated 20 days after spraying, read-out: Pre-emergence activity SETFA (100=total damage to plant; 0=no damage to plant); for pest or weed control at 500 g/ha: rate 500 g/ha; for pest or weed control at 250 g/ha: rate 250 g/ha
Description: as §1, §2

Avena fatua (AVEFA) [12] = assay: as above; details: 480 h, evaluated 20 days after spraying, read-out: Pre-emergence activity AVEFA (100=total damage to plant; 0=no damage to plant); for pest or weed control at 500 g/ha: rate 500 g/ha; for pest or weed control at 250 g/ha: rate 250 g/ha
Description: as §1, §2

## Cc1ccc(-c2ccc(Cl)cc2)cc1C1=C(O)C(C)(C)OC(C)(C)C1=O [Compound A-5]
[1]
  pest or weed control at 125 g/ha: 100%
Lolium perenne (LOLPE) [2]
  pest or weed control at 125 g/ha: 70%
[3]
  pest or weed control at 125 g/ha: 100%
[4]
  pest or weed control at 125 g/ha: 70%
Setaria faberi (SETFA) [5]
  pest or weed control at 125 g/ha: 80%
Avena fatua (AVEFA) [6]
  pest or weed control at 125 g/ha: 70%
[7]
  pest or weed control at 500 g/ha: 100%
Lolium perenne (LOLPE) [8]
  pest or weed control at 500 g/ha: 50%
[9]
  pest or weed control at 500 g/ha: 100%
[10]
  pest or weed control at 500 g/ha: 60%
Setaria faberi (SETFA) [11]
  pest or weed control at 500 g/ha: 100%
Avena fatua (AVEFA) [12]
  pest or weed control at 500 g/ha: 50%

## CCc1ccc(-c2ccc(Cl)cc2)cc1C1=C(O)C(C)(C)SC(C)(C)C1=O [Compound C-1]
[1]
  pest or weed control at 125 g/ha: 100%
Lolium perenne (LOLPE) [2]
  pest or weed control at 125 g/ha: 30%
[3]
  pest or weed control at 125 g/ha: 100%
[4]
  pest or weed control at 125 g/ha: 50%
Setaria faberi (SETFA) [5]
  pest or weed control at 125 g/ha: 80%
Avena fatua (AVEFA) [6]
  pest or weed control at 125 g/ha: 70%
[7]
  pest or weed control at 500 g/ha: 50%
Lolium perenne (LOLPE) [8]
  pest or weed control at 500 g/ha: 30%
[9]
  pest or weed control at 500 g/ha: 30%
[10]
  pest or weed control at 500 g/ha: 20%
Setaria faberi (SETFA) [11]
  pest or weed control at 500 g/ha: 30%
Avena fatua (AVEFA) [12]
  pest or weed control at 500 g/ha: 20%

## CCc1ccc(-c2ccc(Cl)c(F)c2)cc1C1=C(O)C(C)(C)OC(C)(C)C1=O [Compound A-43]
[1]
  pest or weed control at 125 g/ha: 100%
Lolium perenne (LOLPE) [2]
  pest or weed control at 125 g/ha: 80%
[3]
  pest or weed control at 125 g/ha: 100%
[4]
  pest or weed control at 125 g/ha: 80%
Setaria faberi (SETFA) [5]
  pest or weed control at 125 g/ha: 100%
Avena fatua (AVEFA) [6]
  pest or weed control at 125 g/ha: 90%
[7]
  pest or weed control at 250 g/ha: 100%
Lolium perenne (LOLPE) [8]
  pest or weed control at 250 g/ha: 80%
[9]
  pest or weed control at 250 g/ha: 100%
[10]
  pest or weed control at 250 g/ha: 80%
Setaria faberi (SETFA) [11]
  pest or weed control at 250 g/ha: 100%
Avena fatua (AVEFA) [12]
  pest or weed control at 250 g/ha: 90%

## CCc1ccc(-c2ccc(Cl)c(C)c2)cc1C1=C(O)C(C)(C)OC(C)(C)C1=O [Compound A-44]
[1]
  pest or weed control at 125 g/ha: 100%
Lolium perenne (LOLPE) [2]
  pest or weed control at 125 g/ha: 60%
[3]
  pest or weed control at 125 g/ha: 70%
[4]
  pest or weed control at 125 g/ha: 40%
Setaria faberi (SETFA) [5]
  pest or weed control at 125 g/ha: 30%
Avena fatua (AVEFA) [6]
  pest or weed control at 125 g/ha: 60%
[7]
  pest or weed control at 250 g/ha: 70%
Lolium perenne (LOLPE) [8]
  pest or weed control at 250 g/ha: 80%
[9]
  pest or weed control at 250 g/ha: 100%
[10]
  pest or weed control at 250 g/ha: 60%
Setaria faberi (SETFA) [11]
  pest or weed control at 250 g/ha: 50%
Avena fatua (AVEFA) [12]
  pest or weed control at 250 g/ha: 20%

## CCCCC(=O)OC1=C(c2cc(-c3ccc(Cl)cc3)ccc2CC)C(=O)C(C)(C)OC1(C)C [Compound D-2]
[1]
  pest or weed control at 125 g/ha: 90%
Lolium perenne (LOLPE) [2]
  pest or weed control at 125 g/ha: 20%
[3]
  pest or weed control at 125 g/ha: 90%
[4]
  pest or weed control at 125 g/ha: 20%
Setaria faberi (SETFA) [5]
  pest or weed control at 125 g/ha: 90%
Avena fatua (AVEFA) [6]
  pest or weed control at 125 g/ha: 10%
[7]
  pest or weed control at 500 g/ha: 80%
Lolium perenne (LOLPE) [8]
  pest or weed control at 500 g/ha: 80%
[9]
  pest or weed control at 500 g/ha: 100%
[10]
  pest or weed control at 500 g/ha: 30%
Setaria faberi (SETFA) [11]
  pest or weed control at 500 g/ha: 100%
Avena fatua (AVEFA) [12]
  pest or weed control at 500 g/ha: 60%

## CCc1ccc(-c2ccc(Cl)cc2Cl)cc1C1=C(O)C(C)(C)OC(C)(C)C1=O [Compound A-45]
[1]
  pest or weed control at 125 g/ha: 100%
Lolium perenne (LOLPE) [2]
  pest or weed control at 125 g/ha: 70%
[3]
  pest or weed control at 125 g/ha: 100%
[4]
  pest or weed control at 125 g/ha: 20%
Setaria faberi (SETFA) [5]
  pest or weed control at 125 g/ha: 80%
Avena fatua (AVEFA) [6]
  pest or weed control at 125 g/ha: 70%
[7]
  pest or weed control at 250 g/ha: 70%
Lolium perenne (LOLPE) [8]
  pest or weed control at 250 g/ha: 80%
[9]
  pest or weed control at 250 g/ha: 100%
[10]
  pest or weed control at 250 g/ha: 50%
Setaria faberi (SETFA) [11]
  pest or weed control at 250 g/ha: 90%
Avena fatua (AVEFA) [12]
  pest or weed control at 250 g/ha: 50%
